In US20240270741A1 (Cogent Biosciences, Inc., priority 2023, published 2024) one finds IC50 data, which are given here for 22 compounds.

Structures are written as SMILES.

FGFR2, sequence (P21802 399-821 limits assumed): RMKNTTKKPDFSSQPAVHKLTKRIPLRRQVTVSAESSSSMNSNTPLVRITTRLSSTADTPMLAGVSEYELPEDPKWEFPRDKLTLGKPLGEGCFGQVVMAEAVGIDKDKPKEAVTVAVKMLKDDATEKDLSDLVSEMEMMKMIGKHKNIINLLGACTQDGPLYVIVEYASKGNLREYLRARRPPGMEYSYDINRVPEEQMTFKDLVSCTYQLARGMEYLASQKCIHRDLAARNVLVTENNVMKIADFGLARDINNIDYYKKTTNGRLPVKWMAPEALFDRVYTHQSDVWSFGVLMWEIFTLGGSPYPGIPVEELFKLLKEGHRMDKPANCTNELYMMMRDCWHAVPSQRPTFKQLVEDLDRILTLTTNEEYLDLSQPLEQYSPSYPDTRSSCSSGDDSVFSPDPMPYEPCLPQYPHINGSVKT

The first experiment concerns the target FGFR2 (Homo sapiens, UniProt P21802). Nature of the experiment: FGFR wild type enzyme assay (HTRF KinEASE-TK), FGFR2. The following applies: Enz FGFR2 (nM), FGFR2 wild type enzyme.
The compound `Cc1c(-c2cc(Sc3ncccc3F)c3c(C#N)cnn3c2)cnn1C1CCN(S(C)(=O)=O)CC1` [Example 153, 4-[(3-fluoro-2-pyridyl)sulfanyl]-6-[5-methyl-1-(1-methylsulfonyl-4-piperidyl)pyrazol-4-yl]pyrazolo[1,5-a]pyridine-3-carbonitrile] gave an IC50 of 2 nM.
For `Cc1c(-c2cc(Sc3ccccc3C#N)c3c(C#N)cnn3c2)cnn1C[C@@H]1CNCCO1` [Example 232, (S)-4-((2-cyanophenyl)thio)-6-(5-methyl-1-(morpholin-2-ylmethyl)-1H-pyrazol-4-yl)pyrazolo[1,5-a]pyridine-3-carbonitrile], half-maximal inhibition (IC50) required 3.5 nM. Against the preceding compound, the IC50 is about 1.8-fold higher.
As to `Cc1c(-c2cc(Sc3ncccc3F)c3c(C#N)cnn3c2)cnn1[C@@H]1C[C@H]2CNC[C@H]2C1` [Example 226, 4-((3-fluoropyridin-2-yl)thio)-6-(5-methyl-1-((3sR,5s,6aS)-octahydrocyclopenta[c]pyr-rol-5-yl)-1H-pyrazol-4-yl)pyrazolo[1,5-a]pyridine-3-carbonitrile], 1 nM corresponded to half-maximal inhibition (IC50). Against the preceding compound, the IC50 is about 3.5-fold lower.
`Cc1c(-c2cc(Sc3ccc(F)cc3C#N)c3c(C#N)cnn3c2)cnn1[C@H]1CC[C@@H](O)CC1` [Example 288, 4-((2-cyano-4-fluorophenyl)thio)-6-(1-((1s,4s)-4-hydroxycyclohexyl)-5-methyl-1H-pyrazol-4-yl)pyrazolo[1,5-a]pyridine-3-carbonitrile]: 1 nM corresponded to half-maximal inhibition (IC50).
Same read-out and setting: to `Cc1c(-c2cc(Sc3ncccc3F)c3c(C#N)cnn3c2)cnn1[C@H]1CCNC[C@@H]1O` [Example 276, 4-[(3-fluoro-2-pyridyl)sulfanyl]-6-[1-[(3S,4S)-3-hydroxy-4-piperidyl]-5-methylpyrazol-4-yl]pyrazolo[1,5-a]pyridine-3-carbonitrile] belongs 3 nM; to `Cc1c(-c2cc(Sc3ncccc3F)c3c(C#N)cnn3c2)cnn1C[C@@H]1CCCNC1` [Example 150, (R)-4-((3-fluoropyridin-2-yl)thio)-6-(5-methyl-1-(piperidin-3-ylmethyl)-1H-pyrazol-4-yl)pyrazolo[1,5-a]pyridine-3-carbonitrile], 4 nM.
Turning to `Cc1c(-c2cc(Sc3ncccc3F)c3c(C#N)cnn3c2)cnn1[C@H]1CCNC[C@@H]1F` [Example 154, 6-[1-[(3S,4S)-3-fluoro-4-piperidyl]-5-methyl-pyrazol-4-yl]-4-[(3-fluoro-2-pyridyl)sulfanyl]pyrazolo[1,5-a]pyridine-3-carbonitrile], the IC50 was found to be 2 nM. This IC50 is about 2-fold lower than that of the compound before.
Same read-out and setting: the result for `CC(=O)N(C)[C@H]1CC[C@@H](n2ncc(-c3cc(Sc4ccccc4C#N)c4c(C#N)cnn4c3)c2C)CC1` [Example 231, N-((1s,4s)-4-(4-(3-cyano-4-((2-cyanophenyl)thio)pyrazolo [1,5-a]pyridin-6-yl)-5-methyl-1H-pyrazol-1-yl)cyclohexyl)-N-methylacetamide] reads 1 nM.
As to `CC(=O)N1CCC(n2ncc(-c3cc(Sc4ncccc4F)c4c(C#N)cnn4c3)c2C)CC1` [Example 152, 6-(1-(1-acetylpiperidin-4-yl)-5-methyl-1H-pyrazol-4-yl)-4-((3-fluoropyridin-2-yl)thio)pyrazolo[1,5-a]pyridine-3-carbonitrile], the 50% inhibitory concentration (IC50) worked out at 2 nM.
Still for that read-out and setting: to `Cc1c(F)ccc(Sc2cc(-c3cnn(C4CCNCC4)c3C)cn3ncc(C#N)c23)c1C#N` [Example 168] belongs 1 nM.

Still in this experiment, the particulars now being: Enz FGFR2 (nM), FGFR2 wild type enzyme assay.
`CC(=O)N1CCC(n2ncc(-c3cc(Sc4nc(C)c(Cl)cc4F)c4c(C#N)cnn4c3)c2C)CC1` [Example 408, 6-(1-(1-acetylpiperidin-4-yl)-5-methyl-1H-pyrazol-4-yl)-4-((5-chloro-3-fluoro-6-methylpyridin-2-yl)thio)pyrazolo[1,5-a]pyridine-3-carbonitrile] came in with an IC50 of 2 nM.
`CN(C)C(=O)CCn1cc(-c2cc(Sc3ccccc3C#N)c3c(C#N)cnn3c2)cn1` [Example 671, 3-(4-(3-cyano-4-((2-cyanophenyl)thio)pyrazolo [1,5-a]pyridin-6-yl)-1H-pyrazol-1-yl)-N,N-dimethylpropanamide] showed an IC50 of 0.5 nM.
The same measure, in the same setting: the result for `CN[C@]1(C)CC[C@H](n2ncc(-c3cc(Sc4ccccn4)c4c(C#N)cnn4c3)c2C)CC1` [Example 348, 6-(5-methyl-1-((1s,4s)-4-methyl-4-(methylamino)cyclohexyl)-1H-pyrazol-4-yl)-4-(pyridin-2-ylthio)pyrazolo[1,5-a]pyridine-3-carbonitrile] reads 2 nM.
For `CC(=O)N1CCN(c2ncc(-c3cc(Sc4ccccc4C#N)c4c(C#N)cnn4c3)o2)CC1` [Example 601, 6-(2-(4-acetylpiperazin-1-yl)oxazol-5-yl)-4-((2-cyanophenyl)thio)pyrazolo [1,5-a]pyridine-3-carbonitrile], the IC50 came out at 53 nM.
On to `Cn1cc(-c2cc(Sc3ncccc3F)c3c(C#N)cnn3c2)c(N)n1` [Example 617, 6-(3-amino-1-methyl-1H-pyrazol-4-yl)-4-((3-fluoropyridin-2-yl)thio)pyrazolo[1,5-a]pyridine-3-carbonitrile], for which the IC50 is 6 nM. Against the preceding compound, the IC50 is about 8.8-fold lower.
With `CC1(C)C[C@@H](n2cc(-c3cc(Sc4ccccc4C#N)c4c(C#N)cnn4c3)cn2)CN1` [Example 474, (R)-4-((2-cyanophenyl)thio)-6-(1-(5,5-dimethylpyrrolidin-3-yl)-1H-pyrazol-4-yl)pyrazolo[1,5-a]pyridine-3-carbonitrile], half-maximal inhibition (IC50) required 0.2 nM. Compared with the last compound, the IC50 is about 30-fold lower.
For the compound `Cc1nn([C@H]2CCCNC2)cc1-c1cc(Sc2ncccc2F)c2c(C#N)cnn2c1` [Example 415, (S)-4-((3-fluoropyridin-2-yl)thio)-6-(3-methyl-1-(piperidin-3-yl)-1H-pyrazol-4-yl)pyrazolo[1,5-a]pyridine-3-carbonitrile], the midpoint of inhibition, the IC50, lay at 7 nM. Against the preceding compound, the IC50 is about 35-fold higher.
On the same count and under the same terms, the result for `CN(C)c1ccc(-c2cc(Sc3ccccc3C#N)c3c(C#N)cnn3c2)cn1` [Example 580, 4-((2-cyanophenyl)thio)-6-(6-(dimethylamino)pyridin-3-yl)pyrazolo[1,5-a]pyridine-3-carbonitrile] reads 1 nM.
Same read-out and setting: the result for `CNC(=O)c1nn([C@H]2CCCNC2)cc1-c1cc(Sc2ncccc2F)c2c(C#N)cnn2c1` [Example 508, (S)-4-(3-cyano-4-((3-fluoropyridin-2-yl)thio)pyrazolo[1,5-a]pyridin-6-yl)-N-methyl-1-(piperidin-3-yl)-1H-pyrazole-3-carboxamide] reads 48 nM.
Take `N#Cc1cc(F)ccc1Sc1cc(-c2ccc(N3CCNC(=O)C3)nc2)cn2ncc(C#N)c12` [Example 657, 4-((2-cyano-4-fluorophenyl)thio)-6-(6-(3-oxopiperazin-1-yl)pyridin-3-yl)pyrazolo[1,5-a]pyridine-3-carbonitrile]: it took 3 nM to reach half-maximal inhibition (IC50). Compared with the last compound, the IC50 is about 16-fold lower.
Same read-out and setting: the result for `N#Cc1ccccc1Sc1cc(-c2cnn([C@@H]3CCCN(CCO)C3)c2)cn2ncc(C#N)c12` [Example 534, (R)-4-((2-cyanophenyl)thio)-6-(1-(1-(2-hydroxyethyl)piperidin-3-yl)-1H-pyrazol-4-yl)pyrazolo[1,5-a]pyridine-3-carbonitrile] reads 0.5 nM; that for `CC1(C)CC[C@@H](n2cc(-c3cc(Sc4ccccc4C#N)c4c(C#N)cnn4c3)cn2)CN1` [Example 594, (R)-4-((2-cyanophenyl)thio)-6-(1-(6,6-dimethylpiperidin-3-yl)-1H-pyrazol-4-yl)pyrazolo[1,5-a]pyridine-3-carbonitrile], 1 nM.
